Reference: patent publication US20120302566A1, “INDANYLOXYDIHYDROBENZOFURANYLACETIC ACIDS” (BOEHRINGER INGELHEIM INTERNATIONAL GMBH, priority 2010, published 2012)

Tests used:
[1] = target: T1, human GPR40 receptor (Homo sapiens, UniProt O14842); assay: Cytosolic calcium measurement using the FLIPR system; format: cell-based; details: FLIPR cytosolic Ca2+ peak height; 1321N1 cells stably expressing human GPR40; read-out: EC50 values on GPR40 determined as described in (A)
Protocol: (A) Cytosolic calcium measurement using the FLIPR system—1321N1 cells stably expressing human GPR40 receptor (Euroscreen, Belgium) were seeded 24 h before the assay in black clear-bottom collagen-coated 384-well plates in culture medium containing 10% FCS, 1% Na-Pyruvate and 400 μg/ml G418. On the assay day, wells were washed twice with 100 μL Krebs Ringer Buffer (KRB) containing 15 mM sodium hydrogencarbonate and 30 mM Hepes leaving 20 μl rest volume per well. Prior to stimulation the cells were loaded with the Ca^2+-sensitive fluorescent dye from the Calcium4 Assay Kit™ according to the Manufacturer's description (MDS Analytical technologies, Ismaning, Germany) for 80 min at room temperature in the dark, in the presence of 4 mM probenicid. Changes in cytosolic Ca^2+ concentration upon compound addition were monitored using a FLIPR Tetra device (Fluorescence Imaging Plate Reader; MDS Analytical technologies). The peak height of the obtained fluorescence signal was then used to calculate the EC50 values using GraphPad Prism 5 (Graphpad Software Inc, USA) using a sigmoidal curve fitting procedure allowing for a variable hill slope.

[2] = target: T1, human GPR40 receptor; assay: IP1 accumulation measurements using the IPOne assay system; format: cell-based; details: IP1 accumulation (IPOne HTRF), 1 hour stimulation; 1321N1 cells stably expressing human GPR40; read-out: EC50 values on GPR40 determined as described in (B)
Outline: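 1321N1 cells stably expressing human GPR40 were stimulated with compounds for 1 h at 37° in pH 7.4 HEPES buffer with 50 mM final LiCl. IP1 accumulation was then read by HTRF (IP1-d2/anti-IP1 Tb cryptate) after 1 h lysis at room temperature.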

T1 sequence (O14842 whole entry): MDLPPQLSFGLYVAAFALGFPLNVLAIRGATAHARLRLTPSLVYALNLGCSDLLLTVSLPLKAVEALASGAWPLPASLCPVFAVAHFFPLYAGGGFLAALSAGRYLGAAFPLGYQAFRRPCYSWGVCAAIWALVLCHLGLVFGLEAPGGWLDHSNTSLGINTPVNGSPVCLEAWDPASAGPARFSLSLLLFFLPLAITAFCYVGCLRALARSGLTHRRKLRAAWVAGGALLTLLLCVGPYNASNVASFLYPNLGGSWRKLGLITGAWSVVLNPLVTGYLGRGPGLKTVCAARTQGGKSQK

Row | Structure (SMILES) | EC50 [1] [nM] | EC50 [2] [nM]
1 | O=C(O)CC1COc2cc(O[C@@H]3CCc4c(Br)cccc43)ccc21 (mixture of isomers) [Example 6, {6-[(R)-4-Bromo-indan-1-yloxy]-2,3-dihydro-benzofuran-3-yl}-acetic acid] | 49 | 62
2 | O=C(O)CC1COc2cc(OC3CCc4c3cccc4C(F)(F)F)ccc21 (mixture of isomers) [Example 1, [6-(4-Trifluoromethyl-indan-1-yloxy)-2,3-dihydro-benzofuran-3-yl]-acetic acid] | 50 | 69
3 | O=C(O)C[C@H]1COc2cc(O[C@H]3CCc4c3cccc4C(F)(F)F)ccc21 (single isomer, unassigned) [Example 2, [6-(4-Trifluoromethyl-indan-1-yloxy)-2,3-dihydro-benzofuran-3-yl]-acetic acid] | 27 | 20
4 | O=C(O)CC1COc2cc(O[C@@H]3CCc4c(C5=CCOCC5)cccc43)ccc21 (stereo partly drawn) [Example 8, {6-[(R)-4-(3,6-Dihydro-2H-pyran-4-yl)-indan-1-yloxy]-2,3-dihydro-benzofuran-3-yl}-acetic acid] | 312 | 1570
5 | CC1(C)CCC=C1c1cccc2c1CC[C@H]2Oc1ccc2c(c1)OCC2CC(=O)O (mixture of isomers) [Example 15, {6-[(R)-4-(5,5-Dimethyl-cyclopent-1-enyl)-indan-1-yloxy]-2,3-dihydro-benzofuran-3-yl}-acetic acid] | 3840 | 30
6 | O=C(O)C[C@H]1COc2cc(O[C@H]3CCc4c3cccc4C(F)(F)F)ccc21 (stereo in doubt) [3/4, [6-(4-Trifluoromethyl-indan-1-yloxy)-2,3-dihydro-benzofuran-3-yl]-acetic acid] | 186 | 501
7 | COC1(c2cccc3c2CC[C@H]3Oc2ccc3c(c2)OC[C@H]3CC(=O)O)CCC1 [Example 18, {(S)-6-[(R)-4-(1-Methoxy-cyclobutyl)-indan-1-yloxy]-2,3-dihydro-benzofuran-3-yl}-acetic acid] | 21 | 162
8 | COC(c1cccc2c1CCC2Oc1ccc2c(c1)OC[C@H]2CC(=O)O)C1CCC1 (stereo partly drawn) [Example 14, {(S)-6-[4-(Cyclobutyl-methoxy-methyl)-indan-1-yloxy]-2,3-dihydro-benzofuran-3-yl}-acetic acid] | 364 | 125
9 | COc1ccc(-c2cccc3c2CC[C@H]3Oc2ccc3c(c2)OCC3CC(=O)O)cc1 (stereo partly drawn) [Example 10, {6-[(R)-4-(4-Methoxy-phenyl)-indan-1-yloxy]-2,3-dihydro-benzofuran-3-yl}-acetic acid] | 333 | 178
10 | Cn1cc(-c2cccc3c2CC[C@H]3Oc2ccc3c(c2)OCC3CC(=O)O)cn1 (stereo partly drawn) [Example 7, {6-[(R)-4-(1-Methyl-1H-pyrazol-4-yl)-indan-1-yloxy]-2,3-dihydro-benzofuran-3-yl}-acetic acid] | 710 | 2000
11 | O=C(O)CC1COc2cc(O[C@@H]3CCc4c(C5CCOCC5)cccc43)ccc21 (stereo partly drawn) [Example 12, {6-[(R)-4-(Tetrahydro-pyran-4-yl)-indan-1-yloxy]-2,3-dihydro-benzofuran-3-yl}-acetic acid] | 459 | 2690
12 | COC(c1cccc2c1CCC2Oc1ccc2c(c1)OCC2CC(=O)O)C(C)(C)C (stereo not shown) [Example 13, {6-[4-(1-Methoxy-2,2-dimethyl-propyl)-indan-1-yloxy]-2,3-dihydro-benzofuran-3-yl}-acetic acid] | 583 | 43
13 | Cn1ccc(-c2cccc3c2CC[C@H]3Oc2ccc3c(c2)OCC3CC(=O)O)cc1=O (stereo partly drawn) [Example 9, {6-[(R)-4-(1-Methyl-2-oxo-1,2-dihydro-pyridin-4-yl)-indan-1-yloxy]-2,3-dihydro-benzofuran-3-yl}-acetic acid] | 3250 | > 10000
14 | O=C(O)C[C@@H]1COc2cc(O[C@@H]3CCc4c(OC(F)F)cccc43)ccc21 [Example 17, {(S)-6-[(R)-4-Difluoromethoxy-indan-1-yloxy]-2,3-dihydro-benzofuran-3-yl}-acetic acid] | 111 | 139
15 | COC(c1cccc2c1CCC2Oc1ccc2c(c1)OCC2CC(=O)O)C(F)F (stereo not shown) [Example 11, {6-[4-(2,2-Difluoro-1-methoxy-ethyl)-indan-1-yloxy]-2,3-dihydro-benzofuran-3-yl}-acetic acid] | 628 | 2230
16 | CC1(C)CCCC1c1cccc2c1CC[C@H]2Oc1ccc2c(c1)OCC2CC(=O)O (stereo partly drawn) [Example 16, {6-[(R)-4-(2,2-Dimethyl-cyclopentyl)-indan-1-yloxy]-2,3-dihydro-benzofuran-3-yl}-acetic acid] | 3190 | 47
17 | O=C(O)C[C@H]1COc2cc(O[C@H]3CCc4c3cccc4C(F)(F)F)ccc21 (single isomer, unassigned) [Example 5, [6-(4-Trifluoromethyl-indan-1-yloxy)-2,3-dihydro-benzofuran-3-yl]-acetic acid] | 2280 | 8990
